Assay results reported in PubChem BioAssay (NCI).
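These data come from cells grown in 96-well plates and exposed to compound for 48 hours at five concentrations. Definition used: TGI = concentration required for complete inhibition of growth.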

What was measured:
Assay in all cases: growth of human tumour cells (NCI), 48 h
SW-620 colon = system: SW-620 colon
NCI-H460 lung = system: NCI-H460 lung
HS 578T breast = system: HS 578T breast
HT29 colon = system: HT29 colon
SNB-19 CNS = system: SNB-19 CNS
SR leukemia = system: SR leukemia
SF-268 CNS = system: SF-268 CNS
BT-549 breast = system: BT-549 breast
NCI-H23 lung = system: NCI-H23 lung
786-0 renal = system: 786-0 renal
ACHN renal = system: ACHN renal
A498 renal = system: A498 renal
HCC-2998 colon = system: HCC-2998 colon
TK-10 renal = system: TK-10 renal
IGROV1 ovarian = system: IGROV1 ovarian
MDA-N = system: MDA-N
T-47D breast = system: T-47D breast
SN12C renal = system: SN12C renal
OVCAR-8 ovarian = system: OVCAR-8 ovarian
U251 CNS = system: U251 CNS
HCT-116 colon = system: HCT-116 colon
COLO 205 colon = system: COLO 205 colon
HL-60(TB) leukemia = system: HL-60(TB) leukemia
CAKI-1 renal = system: CAKI-1 renal
MCF7 breast = system: MCF7 breast
SF-295 CNS = system: SF-295 CNS
HOP-92 NSCLC = system: HOP-92 NSCLC
SK-MEL-5 melanoma = system: SK-MEL-5 melanoma
MOLT-4 leukemia = system: MOLT-4 leukemia
M14 melanoma = system: M14 melanoma
OVCAR-3 ovarian = system: OVCAR-3 ovarian
OVCAR-5 ovarian = system: OVCAR-5 ovarian
A549 NSCLC = system: A549 NSCLC
SK-MEL-28 melanoma = system: SK-MEL-28 melanoma
NCI-H522 lung = system: NCI-H522 lung
CCRF-CEM leukemia = system: CCRF-CEM leukemia
SK-MEL-2 melanoma = system: SK-MEL-2 melanoma
SF-539 CNS = system: SF-539 CNS
KM12 colon = system: KM12 colon
EKVX NSCLC = system: EKVX NSCLC
UO-31 renal = system: UO-31 renal
UACC-257 melanoma = system: UACC-257 melanoma
K-562 leukemia = system: K-562 leukemia
NCI-H226 lung = system: NCI-H226 lung
SK-OV-3 ovarian = system: SK-OV-3 ovarian
MDA-MB-435 = system: MDA-MB-435
DU-145 prostate = system: DU-145 prostate
HCT-15 colon = system: HCT-15 colon
RPMI-8226 leukemia = system: RPMI-8226 leukemia
MALME-3M melanoma = system: MALME-3M melanoma
OVCAR-4 ovarian = system: OVCAR-4 ovarian
PC-3 prostate = system: PC-3 prostate
SNB-75 CNS = system: SNB-75 CNS
NCI/ADR-RES ovarian = system: NCI/ADR-RES ovarian
UACC-62 melanoma = system: UACC-62 melanoma
RXF 393 renal = system: RXF 393 renal
LOX IMVI melanoma = system: LOX IMVI melanoma
MDA-MB-231 breast = system: MDA-MB-231 breast
HOP-62 NSCLC = system: HOP-62 NSCLC

For `Cc1cc2c(cc1C)C(=O)C1(C2)Cc2cc3c(cc2C1=O)CCC3` (stereo unspecified), the TGI (SW-620 colon) was > 100 µM, the TGI (NCI-H460 lung) was > 100 µM and the TGI (HS 578T breast) was > 100 µM. For the same compound, the TGI (HT29 colon) was > 100 µM, the TGI (SNB-19 CNS) was > 100 µM and the TGI (SR leukemia) was > 100 µM. The TGI (SF-268 CNS) was > 100 µM, the TGI (BT-549 breast) was > 100 µM and the TGI (NCI-H23 lung) was > 100 µM. For the same compound, the TGI (786-0 renal) was > 100 µM, the TGI (ACHN renal) was > 100 µM and the TGI (A498 renal) was > 100 µM. For the same compound, the TGI (HCC-2998 colon) was > 100 µM, the TGI (TK-10 renal) was > 100 µM and the TGI (IGROV1 ovarian) was > 100 µM. The TGI (MDA-N) was > 100 µM, the TGI (T-47D breast) was > 100 µM and the TGI (SN12C renal) was > 100 µM. The TGI (OVCAR-8 ovarian) was > 100 µM, the TGI (U251 CNS) was > 100 µM and the TGI (HCT-116 colon) was > 100 µM. The TGI (COLO 205 colon) was > 100 µM, the TGI (HL-60(TB) leukemia) was > 100 µM and the TGI (CAKI-1 renal) was > 100 µM. The TGI (MCF7 breast) was > 100 µM, the TGI (SF-295 CNS) was > 100 µM and the TGI (HOP-92 NSCLC) was > 100 µM. For the same compound, the TGI (SK-MEL-5 melanoma) was > 100 µM, the TGI (MOLT-4 leukemia) was > 100 µM and the TGI (M14 melanoma) was > 100 µM. The TGI (OVCAR-3 ovarian) was > 100 µM, the TGI (OVCAR-5 ovarian) was > 100 µM and the TGI (A549 NSCLC) was > 100 µM. For the same compound, the TGI (SK-MEL-28 melanoma) was > 100 µM, the TGI (NCI-H522 lung) was > 100 µM and the TGI (CCRF-CEM leukemia) was > 100 µM. For the same compound, the TGI (SK-MEL-2 melanoma) was > 100 µM, the TGI (SF-539 CNS) was 91.9 µM and the TGI (KM12 colon) was > 100 µM. For the same compound, the TGI (EKVX NSCLC) was > 100 µM, the TGI (UO-31 renal) was > 100 µM and the TGI (UACC-257 melanoma) was > 100 µM. The TGI (K-562 leukemia) was > 100 µM, the TGI (NCI-H226 lung) was > 100 µM and the TGI (SK-OV-3 ovarian) was > 100 µM. The TGI (MDA-MB-435) was > 100 µM, the TGI (DU-145 prostate) was > 100 µM and the TGI (HCT-15 colon) was > 100 µM. For the same compound, the TGI (RPMI-8226 leukemia) was > 100 µM, the TGI (MALME-3M melanoma) was > 100 µM and the TGI (OVCAR-4 ovarian) was > 100 µM. The TGI (PC-3 prostate) was > 100 µM, the TGI (SNB-75 CNS) was > 100 µM and the TGI (NCI/ADR-RES ovarian) was > 100 µM. The TGI (UACC-62 melanoma) was > 100 µM and the TGI (RXF 393 renal) was > 100 µM.
For `CC(=O)NC(CSC1=C2NC(=O)\C=C/C=C/C=C\C(C)C(O)CC(=O)/C(C)=C\CC(O)/C=C/C(C)C(O)C(C)C=C(C)C(=O)c3c(O)c(C)cc(c3C1=O)C2=O)C(=O)O` (stereo unspecified), the TGI (SW-620 colon) was > 100 µM, the TGI (NCI-H460 lung) was > 100 µM and the TGI (HS 578T breast) was > 100 µM. For the same compound, the TGI (LOX IMVI melanoma) was > 100 µM, the TGI (HT29 colon) was > 100 µM and the TGI (SNB-19 CNS) was > 100 µM. For the same compound, the TGI (SR leukemia) was > 100 µM, the TGI (BT-549 breast) was > 100 µM and the TGI (NCI-H23 lung) was > 100 µM. For the same compound, the TGI (786-0 renal) was > 100 µM, the TGI (ACHN renal) was > 100 µM and the TGI (MDA-MB-231 breast) was 82.7 µM. The TGI (A498 renal) was > 100 µM, the TGI (TK-10 renal) was > 100 µM and the TGI (IGROV1 ovarian) was > 100 µM. The TGI (MDA-N) was > 100 µM, the TGI (T-47D breast) was > 100 µM and the TGI (SN12C renal) was > 100 µM. The TGI (OVCAR-8 ovarian) was > 100 µM, the TGI (U251 CNS) was > 100 µM and the TGI (HCT-116 colon) was > 100 µM. The TGI (COLO 205 colon) was 79.6 µM, the TGI (HL-60(TB) leukemia) was 73.2 µM and the TGI (CAKI-1 renal) was > 100 µM. The TGI (MCF7 breast) was > 100 µM, the TGI (SF-295 CNS) was > 100 µM and the TGI (HOP-92 NSCLC) was > 100 µM. The TGI (SK-MEL-5 melanoma) was > 100 µM, the TGI (MOLT-4 leukemia) was > 100 µM and the TGI (M14 melanoma) was > 100 µM. For the same compound, the TGI (OVCAR-3 ovarian) was > 100 µM, the TGI (OVCAR-5 ovarian) was > 100 µM and the TGI (A549 NSCLC) was > 100 µM. For the same compound, the TGI (SK-MEL-28 melanoma) was > 100 µM, the TGI (NCI-H522 lung) was 71.8 µM and the TGI (CCRF-CEM leukemia) was 78.9 µM. The TGI (SK-MEL-2 melanoma) was > 100 µM, the TGI (SF-539 CNS) was > 100 µM and the TGI (KM12 colon) was > 100 µM. The TGI (EKVX NSCLC) was > 100 µM, the TGI (UO-31 renal) was > 100 µM and the TGI (UACC-257 melanoma) was > 100 µM. For the same compound, the TGI (K-562 leukemia) was > 100 µM, the TGI (HOP-62 NSCLC) was > 100 µM and the TGI (NCI-H226 lung) was > 100 µM. The TGI (SK-OV-3 ovarian) was > 100 µM, the TGI (MDA-MB-435) was > 100 µM and the TGI (DU-145 prostate) was > 100 µM. The TGI (HCT-15 colon) was > 100 µM, the TGI (MALME-3M melanoma) was > 100 µM and the TGI (OVCAR-4 ovarian) was > 100 µM. The TGI (PC-3 prostate) was > 100 µM, the TGI (SNB-75 CNS) was > 100 µM and the TGI (NCI/ADR-RES ovarian) was > 100 µM. For the same compound, the TGI (UACC-62 melanoma) was > 100 µM.
